Results from publication PMC8038316 (International Journal of Molecular Sciences, 2021).

How the values were obtained:
[1] = molecular target: T1, succinate dehydrogenase (SDH; succinate:quinone oxidoreductase, SQR, EC 1.3.5.1; complex II) (Pyricularia oryzae, UniProt A0ABQ8NN34+G4N2P5+G4NB04); experiment: biochemical
T1 construct: gene SDH2

[2] = molecular target: T2, cytochrome bc1 complex (complex III; decylubiquinol:Cyt c reductase, EC 1.10.2.2) (Pyricularia grisea, UniProt Q85KP9); experiment: biochemical; details: read-out: % inhibition at 50 μM
T2 construct: gene cytb

Compound | inhibition at 400 µM ([1]; read-out: % inhibition at 400 μM) [%] | inhibition at 50 µM [2] [%] | inhibition at 40 µM ([1]; read-out: % inhibition at 40 μM) [%]
CO/C=C(/C(=O)OC)c1ccccc1COc1cccc(NC(=O)c2ccccc2NC(C)=O)c1 [11b] | ~23 | 58 ± 18 | 
CO/C=C(/C(=O)OC)c1ccccc1Oc1cc(Oc2ccccc2C#N)ncn1 [compound 2, azoxystrobin] |  | 61 ± 10 | 
Cn1cc(C(=O)Nc2ccccc2-c2cc(F)c(F)c(F)c2)c(C(F)F)n1 [compound 6, fluxapyroxad] |  |  | > 90
